# Counter-ions that a name gives are not always drawn. Like-named read-outs stand apart in the source and are kept apart here.
# How the values were obtained:
# [1] = system: Acinetobacter baumannii ATCC17961; assay: Antimicrobial susceptibility testing: 90% growth inhibitory concentration (IC90) determination, Iso-Sensitest broth; format: cell-based; details: Acinetobacter baumannii, ATCC17961, 16 h, read-out: ATCC17961 IC90
# Description: Antimicrobial Susceptibility Testing:
# 90% Growth Inhibitory Concentration (IC90) Determination
# The in vitro antimicrobial activity of the compounds was determined according to the following procedure:
# The assay used a 10-points Iso-Sensitest broth medium to measure quantitatively the in vitro activity of the compounds against Acinetobacter baumannii ATCC17978 and Acinetobacter baumannii ATCC17961.
# Stock compounds in DMSO were serially twofold diluted (e.g. range from 50 to 0.097 μM final concentration) in 384 wells microtiter plates and inoculated with 49 μl the bacterial suspension in Iso-Sensitest medium to have a final cell concentration of 5×10^(5) CFU/ml in a final volume/well of 50 ul/well. Microtiter plates were incubated at 35±2° C.
# Bacterial cell growth was determined with the measurement of optical density at λ=600 nm each 20 minutes over a time course of 16 h. Growth inhibition was calculated during the logarithmic growth of the bacterial cells with determination of the concentration inhibiting 50% (IC50) and 90% (IC90) of the growth.
# Table 1 provides the 90% growth inhibitory concentrations (IC90) in micromoles per liter of the compounds of present invention obtained against the strain Acinetobacter baumannii ATCC17978 and Acinetobacter baumannii ATCC17961.
# [2] = system: Acinetobacter baumannii ATCC17978; assay: as above; format: cell-based
# Method in brief: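 A. baumannii ATCC17978 grown in Iso-Sensitest broth across 10 compound concentrations at 35±2 °C.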
# [3] = 90% growth inhibitory concentration, Acinetobacter baumannii ATCC17961, Iso-Sensitest broth, OD 600 nm over 16 h
# [4] = Acinetobacter baumannii, ATCC17978, 16 h, read-out: ATCC17978 IC90, 90% growth inhibitory concentration, Acinetobacter baumannii ATCC17978, Iso-Sensitest broth, OD 600 nm over 16 h
# [5] = 90% growth inhibitory concentration, Acinetobacter baumannii ATCC17978, Iso-Sensitest broth, OD 600 nm over 16 h, read-out: ATCC17978 IC90
Structure (SMILES),"IC90 [1, 3] [nM]",also measured
"COc1ccc(-c2cnc3c(Nc4ccc(C(=O)N5CCN(C(=O)[C@H]6NC[C@H]7C[C@H]76)CC5)c(C)c4)nccn23)c(F)c1F (racemic) [Example 82, (4-((1R,2S,5S)-3-azabicyclo[3.1.0]hexane-2-carbonyl)piperazin-1-yl)(4-((3-(2,3-difluoro-4-methoxyphenyl)imidazo[1,2-a]pyrazin-8-yl)amino)-2-methylphenyl)methanone hydrochloride]",98,–
"COc1ccc(-c2cnc3c(Nc4ccc(C(=O)N5CCN(C(=O)[C@]6(O)CNCC[C@H]6O)CC5)c(C)c4)nccn23)c(F)c1F (relative stereo) [Example 236, rel-(4-(4-((3-(2,3-difluoro-4-methoxyphenyl)imidazo[1,2-a]pyrazin-8-yl)amino)-2-methylbenzoyl)piperazin-1-yl)((3R,4S)-3,4-dihydroxypiperidin-3-yl)methanone]",82,–
"COc1cc(Nc2nccn3c(-c4ccc(OC)c(F)c4F)cnc23)ccc1C(=O)N1CCN(C(=O)[C@H]2C[C@H](O)CN2)CC1 (stereo in doubt) [Example 586, (4-(4-((3-(2,3-difluoro-4-methoxyphenyl)imidazo[1,2-a]pyrazin-8-yl)amino)-2-methoxybenzoyl)piperazin-1-yl)((2R,4S)-4-hydroxypyrrolidin-2-yl)methanone formate]",–,IC90 [1]: 312 nM
"COc1ccc(-c2cnc3c(Nc4ccc(C(=O)N5CCC(CN)CC5)c(C)c4)nccn23)cc1 [Example 19, (4-(aminomethyl)piperidin-1-yl)(4-((3-(4-methoxyphenyl)imidazo[1,2-a]pyrazin-8-yl)amino)-2-methylphenyl)methanone hydrochloride]",82,–
"COc1ccc(-c2cnc3c(Nc4ccc(C(=O)N5CCN(C(=O)[C@@H]6CC(C)(C)CN6)CC5)c(C)c4)nccn23)c(F)c1F [Example 76, (S)-(4-(4-((3-(2,3-difluoro-4-methoxyphenyl)imidazo[1,2-a]pyrazin-8-yl)amino)-2-methylbenzoyl)piperazin-1-yl)(4,4-dimethylpyrrolidin-2-yl)methanone hydrochloride]",91,–
"COc1ccc(-c2cnc3c(Nc4ccc(C(=O)N5CCN(C(=O)[C@@H]6CCC(C)(C)N6)CC5)c(C)c4)nccn23)c(F)c1F [Example 77, (S)-(4-(4-((3-(2,3-difluoro-4-methoxyphenyl)imidazol[1,2-a]pyrazin-8-yl)amino)-2-methylbenzoyl)piperazin-1-yl)(5,5-dimethylpyrrolidin-2-yl)methanone hydrochloride]",83,–
"COc1ccc(-c2cnc3c(Nc4ccc(C(=O)N5CCN(C(=O)[C@H]6NCC[C@H]6O)CC5)c(C)c4)nccn23)c(F)c1F [Example 78, (4-(4-((3-(2,3-difluoro-4-methoxyphenyl)imidazo[1,2-a]pyrazin-8-yl)amino)-2-methylbenzoyl)piperazin-1-yl)((2S,3R)-3-hydroxypyrrolidin-2-yl)methanone hydrochloride]",–,IC90 [1]: 87 nM
"COc1ccc(-c2cnc3c(Nc4ccc(C(=O)N5CCN(C(=O)[C@@H]6NCC[C@@H]6O)CC5)c(C)c4)nccn23)c(F)c1F [Example 79, [4-[[3-(2,3-difluoro-4-methoxyphenyl)imidazo[1,2-a]pyrazin-8-yl]amino]-2-methylphenyl]-[4-[(2R,3S)-3-hydroxypyrrolidine-2-carbonyl]piperazin-1-yl]methanone;hydrochloride]",167,–
"COc1ccc(-c2cnc3c(Nc4ccc(C(=O)N5CCN(C(=O)C6(C)CCCN6)CC5)c(C)c4)nccn23)c(F)c1F (centres unmarked) [Example 80, (4-(4-((3-(2,3-difluoro-4-methoxyphenyl)imidazo[1,2-a]pyrazin-8-yl)amino)-2-methylbenzoyl)piperazin-1-yl)(2-methylpyrrolidin-2-yl)methanone hydrochloride]",81,–
"COc1ccc(-c2cnc3c(Nc4ccc(C(=O)N5CCN(C(=O)[C@@H]6C[C@@H](F)CN6)CC5)c(C)c4)nccn23)c(F)c1F [Example 81, (4-(4-((3-(2,3-difluoro-4-methoxyphenyl)imidazo[1,2-a]pyrazin-8-yl)amino)-2-methylbenzoyl)piperazin-1-yl)((2S,4R)-4-fluoropyrrolidin-2-yl)methanone hydrochloride]",106,–
"COc1ccc(-c2cnc3c(Nc4ccc(C(=O)N5CCN(C(=O)[C@@H]6C[C@@H](OC(=O)[C@@H](N)CCC(N)=O)CN6)CC5)c(C)c4)nccn23)c(F)c1F [Example 565, [(3R,5S)-5-[4-[4-[[3-(2,3-difluoro-4-methoxy-phenyl)imidazo[1,2-a]pyrazin-8-yl]amino]-2-methyl-benzoyl]piperazine-1-carbonyl]pyrrolidin-3-yl] (2S)-2,5-diamino-5-oxo-pentanoate formate]",–,"IC90 [2, 4]: 109 nM"
"COc1ccc(-c2cnc3c(Nc4ccc(C(=O)N5CCC(C(=O)N6C[C@H](O)[C@@H](O)[C@H](O)[C@H]6CO)CC5)c(C)c4)nccn23)c(F)c1F [Example 566, (1-(4-((3-(2,3-difluoro-4-methoxyphenyl)imidazo[1,2-a]pyrazin-8-yl)amino)-2-methylbenzoyl)piperidin-4-yl)((2R,3R,4R,5S)-3,4,5-trihydroxy-2-(hydroxymethyl)piperidin-1-yl)methanone]",–,"IC90 [2, 5]: 370 nM"
"Cc1cc(Nc2nccn3c(-c4ccc(O[C@H](C)C#N)c(F)c4F)cnc23)ccc1C(=O)N1CCN(C(=O)[C@@H]2C[C@](C)(O)CN2)CC1 [Example 567, (2R)-2-[2,3-difluoro-4-[8-[4-[4-[(2S,4S)-4-hydroxy-4-methyl-pyrrolidine-2-carbonyl]piperazine-1-carbonyl]-3-methyl-anilino]imidazo[1,2-a]pyrazin-3-yl]phenoxy]propanenitrile formate]",–,"IC90 [2, 4]: 386 nM"
"COc1ccc(-c2cnc3c(Nc4ccc(C(=O)N5CCC(C(=O)NCC(O)CN6CCCC6)CC5)c(C)c4)nccn23)cc1F (centres unmarked) [Example 568, 1-(4-((3-(3-fluoro-4-methoxyphenyl)imidazo[1,2-a]pyrazin-8-yl)amino)-2-methylbenzoyl)-N-(2-hydroxy-3-(pyrrolidin-1-yl)propyl)piperidine-4-carboxamide]",–,"IC90 [2, 5]: 229 nM"

# Second part, led by results:
"IC90 [1, 3] [nM]",Structure (SMILES),also measured
35,"Cc1cc(Nc2nccn3c(-c4ccc(OC(F)F)cc4)cnc23)ccc1C(=O)N1CCN(C(=O)N[C@@H]2CNC[C@H]2O)CC1 (racemic) [Example 170, 4-[4-[[3-[4-(difluoromethoxy)phenyl]imidazo[1,2-a]pyrazin-8-yl]amino]-2-methyl-benzoyl]-N-[rac-(3R,4R)-4-hydroxypyrrolidin-3-yl]piperazine-1-carboxamide hydrochloride]",–
104,"COc1ccc(-c2cnc3c(Nc4ccc(C(=O)N5CCN(C(=O)[C@H]6C[C@H](O)CN6)CC5)c(C)c4)nccn23)c(F)c1F (racemic) [Example 228, [4-[[3-(2,3-difluoro-4-methoxy-phenyl)imidazo[1,2-a]pyrazin-8-yl]amino]-2-methyl-phenyl]-[4-[rac-(2R,4S)-4-hydroxy-pyrrolidine-2-carbonyl]piperazin-1-yl]methanone]",–
81,"COc1ccc(-c2cnc3c(Nc4ccc(C(=O)NC5CCC(NC(=O)[C@H]6C[C@H](O)CN6)C5)c(C)c4)nccn23)c(F)c1F (mixture of isomers) [Example 458, rac-(2R,4S)-N-[3-[[4-[[3-(2,3-difluoro-4-methoxyphenyl)imidazo[1,2-a]pyrazin-8-yl]amino]-2-methylbenzoyl]amino]cyclo-pentyl]-4-hydroxypyrrolidine-2-carboxamide]",–
47,"Cc1cc(Nc2nccn3c(-c4ccc(OCC#N)c(F)c4Cl)cnc23)ccc1C(=O)N1CCN(C(=O)[C@@H]2CCNC[C@@H]2O)CC1 (relative stereo) [Example 223, 2-[3-chloro-2-fluoro-4-[8-[4-[4-[(3R,4R)-3-hydroxypiperidine-4-carbonyl]piperazine-1-carbonyl]-3-methyl-anilino]imidazo[1,2-a]pyrazin-3-yl]phenoxy] acetonitrile formate]",–
330,"COc1ccc(-c2cnc3c(Nc4ccc(C(=O)N5CCN(C(=O)[C@]67CNCC[C@H]6OC(C)(C)O7)CC5)c(C)c4)nccn23)c(F)c1F (stereo in doubt) [Example 577, rel-(4-(4-((3-(2,3-difluoro-4-methoxyphenyl)imidazo[1,2-a]pyrazin-8-yl)amino)-2-methylbenzoyl)piperazin-1-yl)((3aR,7aS)-2,2-dimethyltetrahydro-[1,3]dioxolo[4,5-c]pyridin-3a(4H)-yl)methanone]",–
649,"COc1ccc(-c2cnc3c(Nc4ccc(C(=O)N5CCN(C(=O)[C@@]67CNCC[C@@H]6OC(C)(C)O7)CC5)c(C)c4)nccn23)c(F)c1F (stereo in doubt) [Example 578, rel-(4-(4-((3-(2,3-difluoro-4-methoxyphenyl)imidazo[1,2-a]pyrazin-8-yl)amino)-2-methylbenzoyl)piperazin-1-yl)((3aR,7aS)-2,2-dimethyltetrahydro-[1,3]dioxolo[4,5-c]pyridin-3a(4H)-yl)methanone]",–
